Data taken from patent US20150250925A1, “[…] TISSUE, […] MODEL AND MANUFACTURING METHOD THEREFOR” (priority 2012, published 2015).

Legend:
Type in all cases: cell-based, human
[1] = tested on: dermal tissue layer including dendritic cells; assay: Immune response evaluation: IL-6 ELISA after LPS addition, dermal tissue layer including dendritic cells; conditions: 24 hours, FIG. 3
Experimental: (§1) A dermal tissue layer including dendritic cells was prepared in the same manner as Example 1. The culture medium of the dermal tissue layer was changed to DMEM containing 10% FBS (the inside of the insert: 30 μl, the outside of the insert: 1 ml). Lipopolysaccharide (LPS, produced by Sigma-Aldrich Co. LLC.) was added to the inside of the insert and incubated for 24 hours. Then, all the culture medium in the outside of the insert was collected, and interleukin (IL)-6 was quantified by enzyme-linked immunosorbent assay (ELISA (R & D, D6056)). The concentration of the lipopolysaccharide was 0, 1, 10, 100, or 1000 ng/ml.
(§2) FIG. 3 is an example of a graph showing the relationship between the amount of LPS added and the amount of IL-6 produced from the dermal tissue layer.

[2] = tested on: dermal tissue layer (without dendritic cells); assay: Immune response evaluation: IL-6 ELISA after LPS addition, dermal tissue layer without dendritic cells; conditions: LPS 0, 1, 10, 100 or 1000 ng/ml, 24 hours; layer does not include dendritic cells; FIG. 3
Experimental: as §1
A dermal tissue layer (without dendritic cells) was prepared in the same manner as Example 1 except that “only the NHDF coated cells” were used instead of “a mixture of the NHDF coated cells and the MoDC coated cells”. Using the dermal tissue layer, an immune response was evaluated in the same manner as described above.
as §2

[3] = tested on: artificial skin model including the epidermal layer; assay: Immune response evaluation: IL-6 ELISA after LPS addition, artificial skin model of Example 4; conditions: LPS 0-1000 ng/ml, 24 hours, FIG. 4
Experimental: as §1
First, a dermal tissue layer was prepared in the same manner as Example 1 and immersed in a 50 mM Tris-HCl solution (pH=7.4) containing collagen IV for 20 minutes, so that the dermal tissue layer was coated with collagen W Then, 1.8×10^5 KC were seeded and cultured in an adherent culture medium for 2 days. Subsequently, the KC were exposed to the air-liquid interface of a keratinized medium (multi-layered medium) for 7 days to induce differentiation, and thus an artificial skin model was prepared.
Using the artificial skin model, an immune response was evaluated in the same manner as Reference Example 1. […] FIG. 4 is an example of a graph showing the relationship between the amount of LPS added and the amount of IL-6 produced from the dermal tissue layer. […]

[4] = tested on: dermal tissue layer with NHDF, NHDMEC and MoDC; assay: CLSM observation of dermal tissue layer of Reference Example 2 after LPS addition; conditions: 1 μg/ml LPS, 30 hours after addition; FIG. 5
Experimental: NHDF coated cells were seeded and cultured so that the NHDF were arranged in 4 layers. Then, NHDMEC (human dermal microvascular endothelial cells) coated cells were seeded and cultured on top of the NHDF layers so that the NHDMEC were arranged in 1 layer. Moreover, NHDF coated cells were seeded and cultured on the NHDMEC layer so that the NHDF were arranged in 4 layers. These layered cells were cultured in 2.3 ml of DMEM containing 10% FBS for 3 days. Subsequently, 5×10^4 MoDC were seeded and cultured in 2.3 ml of DMEM containing 10% FBS for 1 day. Thus, a dermal tissue layer was formed. The dermal tissue layer was placed in the insert, to which 1 μg/ml LPS was added. The dermal tissue layer was observed by a confocal laser scanning microscope for 30 hours.
FIG. 5 is an example of a confocal laser scanning microscope (CLSM) image taken 30 hours after the addition of the LPS. […] Although the details of this are not clear, it is known that the dendritic cells are transferred to the lymphatic vessels when they are activated by an antigen in a living body. […] Moreover, it has been reported that, in a living body, a CC chemokine receptor 7 is expressed in the activated dendritic cells, while CC chemokine ligands 21, 19, which are ligands of the CC chemokine receptor 7, are produced in the lymphatic vessels. […]

## Lipopolysaccharide [LPS]
[1]; LPS 0, 1, 10, 100 or 1000 ng/ml, layer includes dendritic cells
  amount of IL-6 produced from the dermal tissue layer: increases with an increase in the amount of LPS added
[1]; LPS 0-1000 ng/ml
  amount of IL-6 produced, layer with dendritic cells compared to layer without: increases significantly
[2]
  amount of IL-6 produced from the dermal tissue layer: increases with an increase in the amount of LPS added
[3]
  amount of IL-6 produced: does not change with the amount of LPS added
[4]
  overlap between dendritic cells and NHDMEC (CLSM image): state of overlap between the dendritic cells and the NHDMEC after the addition of the LPS is observed
